We go through 29 compounds from US9580416B2, “Inhibitors of Bruton's tyrosine kinase” (PHARMACYCLICS LLC, priority 2014, dated 2017).

Type in all cases: biochemical
Experiment [1] has as its target Btk (Homo sapiens, UniProt Q06187). The experiment is described as follows: Btk kinase activity, TR-FRET assay. Conditions: read-out: Btk (IC50). Here is the method: (§1) Btk kinase activity is determined using a time-resolved fluorescence resonance energy transfer (TR-FRET) methodology. Measurements are performed in a reaction volume of 50 μL using 96-well assay plates. Kinase enzyme, inhibitor, ATP (at the Km for the kinase), and 1 […] (Biotin-AVLESEEELYSSARQ-NH2) are incubated in a reaction buffer composed of 20 mM Tris, 50 mM NaCl, MgCl2 (5-25 mM depending on the kinase), MnCl2 (0-10 mM), 1 mM DTT, 0.1 mM EDTA, 0.01% bovine serum albumin, 0.005% Tween-20, and 10% DMSO at pH 7.4 for one hour. The reaction is quenched by the addition of 1.2 equivalents of EDTA (relative to divalent cation) in 25 μL of 1× Lance buffer (Perkin-Elmer). Streptavidin-APC (Perkin-Elmer) and Eu-labeled p-Tyr100 antibody (Perkin-Elmer) in 1× Lance buffer are added in a 25 μL volume to give final concentrations of 100 nM and 2.5 nM, respectively, and the mixture is allowed to incubate for one hour. The TR-FRET signal is measured on a multimode plate reader with an excitation wavelength (λEx) of 330 nm and detection wavelengths (λEm) of 615 and 665 nm. Activity is determined by the ratio of the fluorescence at 665 nm to that at 615 nm. For each compound, enzyme activity is measured at various concentrations of compound. Negative control reactions are performed in the absence of inhibitor in replicates of six, and two no-enzyme controls are used to determine baseline fluorescence levels. Inhibition constants, Ki(app), ware obtained using the program BatchKi (Kuzmic et al. (2000), Anal. Biochem. 286:45-50). IC50s are obtained according to the equation: IC50={Ki(app)/(1+[ATP]/Km^ATP)}+[E]total/2;
(§2) For all kinases, [ATP]=Km^ATP, [Btk]total=0.5 nM and [Lck]total=6 nM.
On the technique in general: Time-resolved FRET reads energy transfer from a long-lived donor to a nearby acceptor.

For experiment [2], the target named is EGFR (Homo sapiens, UniProt P00533). As to the kind of experiment: Inhibition of a panel of kinases, in vitro HotSpot kinase assay: EGFR. Here is the method: The degree of inhibition of a panel of kinases is determined using the in vitro HotSpot kinase assay (purified enzymes, ^33P-ATP, an appropriate substrate and 1 uM ATP).
The target in experiment [3] is Lck (Homo sapiens, UniProt P06239). As to the kind of experiment: Lck kinase activity, TR-FRET assay. Particulars: read-out: LCK (IC50). Here is the method: as §1, §2
Lck, sequence (P06239 whole entry, species assumed): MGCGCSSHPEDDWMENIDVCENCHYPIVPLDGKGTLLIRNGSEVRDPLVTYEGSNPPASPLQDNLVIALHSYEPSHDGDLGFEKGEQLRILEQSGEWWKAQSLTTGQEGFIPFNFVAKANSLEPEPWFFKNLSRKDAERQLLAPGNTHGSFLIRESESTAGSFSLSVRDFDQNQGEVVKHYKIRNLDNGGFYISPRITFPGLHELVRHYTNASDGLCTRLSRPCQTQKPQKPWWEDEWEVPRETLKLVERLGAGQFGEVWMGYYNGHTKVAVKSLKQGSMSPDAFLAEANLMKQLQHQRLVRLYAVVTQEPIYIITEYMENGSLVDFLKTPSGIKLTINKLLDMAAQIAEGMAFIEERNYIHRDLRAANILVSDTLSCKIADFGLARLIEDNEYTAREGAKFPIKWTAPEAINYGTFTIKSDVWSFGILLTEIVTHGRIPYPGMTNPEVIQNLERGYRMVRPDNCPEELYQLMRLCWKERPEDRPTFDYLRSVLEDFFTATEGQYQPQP

EGFR, sequence (P00533 25-1210): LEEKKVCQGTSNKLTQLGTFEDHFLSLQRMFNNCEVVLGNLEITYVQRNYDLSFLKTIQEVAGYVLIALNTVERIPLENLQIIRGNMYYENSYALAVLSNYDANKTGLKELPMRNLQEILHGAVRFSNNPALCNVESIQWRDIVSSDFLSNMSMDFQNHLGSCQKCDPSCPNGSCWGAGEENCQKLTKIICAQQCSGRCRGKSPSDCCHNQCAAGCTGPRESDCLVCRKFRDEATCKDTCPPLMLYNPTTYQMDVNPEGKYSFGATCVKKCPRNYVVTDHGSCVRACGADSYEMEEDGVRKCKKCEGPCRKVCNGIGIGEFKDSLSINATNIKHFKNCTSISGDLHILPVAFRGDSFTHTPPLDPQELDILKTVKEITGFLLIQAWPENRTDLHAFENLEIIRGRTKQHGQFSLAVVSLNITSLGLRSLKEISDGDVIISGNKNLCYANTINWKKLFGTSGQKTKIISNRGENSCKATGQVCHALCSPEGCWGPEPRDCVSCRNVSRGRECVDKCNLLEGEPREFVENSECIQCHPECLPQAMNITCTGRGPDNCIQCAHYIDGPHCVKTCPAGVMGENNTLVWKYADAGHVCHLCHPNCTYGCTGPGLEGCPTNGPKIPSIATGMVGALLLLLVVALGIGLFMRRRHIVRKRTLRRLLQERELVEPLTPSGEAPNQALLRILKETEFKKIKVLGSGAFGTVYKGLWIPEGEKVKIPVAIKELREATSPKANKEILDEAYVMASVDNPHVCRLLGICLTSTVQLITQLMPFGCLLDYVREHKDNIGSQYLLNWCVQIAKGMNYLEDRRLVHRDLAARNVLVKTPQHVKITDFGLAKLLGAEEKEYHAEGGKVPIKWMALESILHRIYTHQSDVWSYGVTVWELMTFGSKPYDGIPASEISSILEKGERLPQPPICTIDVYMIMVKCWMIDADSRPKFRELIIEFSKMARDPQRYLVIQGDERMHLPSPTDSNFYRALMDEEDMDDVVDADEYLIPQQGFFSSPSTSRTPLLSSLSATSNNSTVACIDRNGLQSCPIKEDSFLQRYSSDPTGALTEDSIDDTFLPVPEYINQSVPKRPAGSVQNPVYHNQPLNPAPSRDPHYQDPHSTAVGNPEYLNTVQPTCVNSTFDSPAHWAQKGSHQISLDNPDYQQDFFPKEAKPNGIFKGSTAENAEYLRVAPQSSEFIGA
Btk, sequence (Q06187 whole entry): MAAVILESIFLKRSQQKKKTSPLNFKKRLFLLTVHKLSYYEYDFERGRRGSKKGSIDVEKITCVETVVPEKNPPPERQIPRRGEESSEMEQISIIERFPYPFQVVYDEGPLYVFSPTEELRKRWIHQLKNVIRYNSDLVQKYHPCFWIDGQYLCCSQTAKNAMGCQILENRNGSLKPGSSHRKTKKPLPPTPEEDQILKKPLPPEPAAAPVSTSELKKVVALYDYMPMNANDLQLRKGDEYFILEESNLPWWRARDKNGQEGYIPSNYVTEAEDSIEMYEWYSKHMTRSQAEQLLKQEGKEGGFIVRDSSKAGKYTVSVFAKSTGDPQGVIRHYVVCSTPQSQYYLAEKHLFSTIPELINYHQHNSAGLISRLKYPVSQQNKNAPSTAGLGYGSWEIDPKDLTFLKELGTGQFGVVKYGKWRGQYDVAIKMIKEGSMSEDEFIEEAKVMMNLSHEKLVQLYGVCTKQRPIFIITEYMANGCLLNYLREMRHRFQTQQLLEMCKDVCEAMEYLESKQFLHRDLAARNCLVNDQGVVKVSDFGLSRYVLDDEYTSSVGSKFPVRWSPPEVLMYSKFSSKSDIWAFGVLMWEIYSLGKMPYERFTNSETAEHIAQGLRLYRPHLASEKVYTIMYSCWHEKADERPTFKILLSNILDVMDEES

By IC50 is commonly meant the concentration at which inhibition is half-maximal. For the compound `CC(C)c1ccnc(NC(=O)c2ccc(Oc3ccnc4[nH]nc(N[C@@H]5CCN(C(=O)/C=C/CN(C)C6CC6)C5)c34)cc2)c1` [compound 61], the IC50 in experiment [1] is less than 100 nM; in experiment [2], 1000 to 10000 nM; in experiment [3], 100 to 1000 nM.

`N#CCNC(=O)c1cc(Nc2n[nH]c3nccc(Oc4ccc(Oc5ccccc5)cc4)c23)ccn1` [compound 65]: the IC50 in experiment [1] was 100 to 1000 nM; in experiment [2], 100 to 1000 nM; in experiment [3], less than 100 nM.

For `CN(C)C/C=C/C(=O)N1CC[C@@H](Oc2n[nH]c3nccc(Nc4ccc(Oc5ccccc5)cc4)c23)C1` [compound 14, (2E)-4-(dimethylamino)-1-[(3R)-3-({4-[(4-phenoxyphenyl)amino]-1H-pyrazolo[3,4-b]pyridin-3-yl}oxy)pyrrolidin-1-yl]but-2-en-1-one], the IC50 in experiment [1], in experiment [2] and in experiment [3] was less than 100 nM each time.

Turning to `N#Cc1ccnc(NC(=O)c2ccc(Oc3ccnc4[nH]nc(N[C@@H]5CCCN(C(=O)C6CC6)C5)c34)cc2)c1` [compound 81, N-(4-cyanopyridin-2-yl)-4-[(3-{[(3R)-1-cyclopropanecarbonylpiperidin-3-yl]amino}-1H-pyrazolo[3,4-b]pyridin-4-yl)oxy]benzamide], the IC50 in experiment [1] is less than 100 nM; in experiment [2] it was 1000 to 10000 nM; in experiment [3], 100 to 1000 nM.

For `CC1(C(=O)N2CCC[C@@H](Nc3n[nH]c4nccc(Oc5ccc(C(=O)Nc6cc(C(F)(F)F)ccn6)cc5)c34)C2)COC1` [compound 84, 4-[(3-{[(3R)-1-(3-methyloxetane-3-carbonyl)piperidin-3-yl]amino}-1H-pyrazolo[3,4-b]pyridin-4-yl)oxy]-N-[4-(trifluoromethyl)pyridin-2-yl]benzamide], the IC50 was less than 100 nM in experiment [1] and 100 to 1000 nM in experiment [3].

As for `COc1ccnc(NC(=O)c2ccc(Oc3ccnc4[nH]nc(N[C@@H]5CCN(C(=O)/C=C/CN(C)C6CC6)C5)c34)cc2)c1` [compound 58], the IC50 is less than 100 nM in experiment [1], more than 10000 nM in experiment [2] and 1000 to 10000 nM in experiment [3].

As for `CN(C/C=C/C(=O)N1CC[C@@H](Nc2n[nH]c3ncnc(Oc4ccc(Oc5ccccc5)cc4)c23)C1)C1CC1` [compound 48], the IC50 lay within 100 to 1000 nM in experiment [1], 100 to 1000 nM in experiment [2] and 1000 to 10000 nM in experiment [3].

In the case of `CN(C)C/C=C/C(=O)N1CC[C@@H](Nc2n[nH]c3ncnc(Oc4ccc(Oc5ccccc5)cc4)c23)C1` [compound 39], the IC50 in experiment [1] is less than 100 nM; in experiment [2], less than 100 nM; in experiment [3], 100 to 1000 nM.

Take `c1ccc(Oc2ccc(Oc3ncnc4[nH]nc(N[C@@H]5CCCNC5)c34)cc2)cc1` [compound 50]: the IC50 in experiment [1] and in experiment [2] was more than 10000 nM in each case.

`CC1(C(=O)N2CCC[C@@H](Nc3n[nH]c4nccc(Oc5ccc(C(=O)Nc6cc(C#N)ccn6)cc5)c34)C2)COC1` [compound 83, N-(4-cyanopyridin-2-yl)-4-[(3-{[(3R)-1-(3-methyloxetane-3-carbonyl)piperidin-3-yl]amino}-1H-pyrazolo[3,4-b]pyridin-4-yl)oxy]benzamide]: the IC50 was less than 100 nM in experiment [1] and 100 to 1000 nM in experiment [3].

With `N#Cc1ccnc(NC(=O)c2ccc(Oc3ccnc4[nH]nc(N[C@H]5CC[C@H](O)CC5)c34)cc2)c1` [compound 82, N-(4-cyanopyridin-2-yl)-4-[(3-{[(R,4R)-4-hydroxycyclohexyl]amino}-1H-pyrazolo[3,4-b]pyridin-4-yl)oxy]benzamide], the IC50 in experiment [1] is less than 100 nM; in experiment [3], 100 to 1000 nM.

`CC#CC(=O)N1CCC[C@@H](Nc2n[nH]c3nccc(Oc4ccc(C(=O)Nc5ncc(C#N)s5)cc4)c23)C1` [compound 168]: the IC50 in experiment [1] is less than 100 nM.

`C=CC(=O)N1CCC[C@@H](Nc2n[nH]c3nccc(Oc4ccc(-c5nc6ncccc6o5)cc4)c23)C1` [compound 213, 1-[(3R)-3-{[4-(4-{[1,3]oxazolo[4,5-b]pyridin-2-yl}phenoxy)-1H-pyrazolo[3,4-b]pyridin-3-yl]amino}piperidin-1-yl]prop-2-en-1-one]: the IC50 in experiment [1] was in the range of 100 to 1000 nM.

With `CN(C/C=C/C(=O)N1CC[C@@H](N(C(=O)/C=C/CN(C)C2CC2)c2n[nH]c3ncnc(Oc4ccc(Oc5ccccc5)cc4)c23)C1)C1CC1` [compound 49], in experiment [1], the 50% inhibitory concentration (IC50) is 100 to 1000 nM.

Turning to `C=CC(=O)N1CC[C@@H](N(C)c2n[nH]c3nccc(Oc4ccc(Cl)cc4)c23)C1` [compound 2, 1-[(3R)-3-{[4-(4-chlorophenoxy)-1H-pyrazolo[3,4-b]pyridin-3-yl](methyl)amino}pyrrolidin-1-yl]prop-2-en-1-one], the IC50 in experiment [1] is less than 100 nM.

As to `CC#CC(=O)N1CCC[C@@H](Nc2n[nH]c3nccc(Oc4ccc(C(=O)N(C)c5ncc(C)s5)cc4)c23)C1` [compound 210, 4-[(3-{[(3R)-1-(but-2-ynoyl)piperidin-3-yl]amino}-1H-pyrazolo[3,4-b]pyridin-4-yl)oxy]-N-methyl-N-(5-methyl-1,3-thiazol-2-yl)benzamide], the IC50 in experiment [1] was 100 to 1000 nM.

For the compound `CC#CC(=O)N1CCC[C@@H](Nc2n[nH]c3nccc(Oc4ccc(C(=O)N5CCCC(C(F)(F)F)C5)cc4)c23)C1` (some centres unmarked) [compound 163], the IC50 in experiment [1] was in the range of 100 to 1000 nM.

Consider `CC#CC(=O)N1CCC[C@@H](Nc2n[nH]c3nccc(Oc4ccc(-c5ccc(C(F)(F)F)cn5)cc4)c23)C1` [compound 206, 1-[(3R)-3-[(4-{4-[5-(trifluoromethyl)pyridin-2-yl]phenoxy}-1H-pyrazolo[3,4-b]pyridin-3-yl)amino]piperidin-1-yl]but-2-yn-1-one], for which, in experiment [1], the IC50 was more than 10000 nM.

For `Cc1cc(NC(=O)c2cccc(Nc3ccnc4[nH]nc(N[C@@H]5CCCNC5)c34)c2)ccc1C(C)C` [compound 253, (R)—N-(4-isopropyl-3-methylphenyl)-3-(3-(piperidin-3-ylamino)-1H-pyrazolo[3,4-b]pyridin-4-ylamino)benzamide], in experiment [1], the IC50 is 100 to 1000 nM.

On to `C=CC(=O)N1CCC[C@@H](Nc2n[nH]c3nccc(Oc4ccc(C(=O)Nc5ncc(C(F)(F)F)s5)cc4)c23)C1` [compound 208, 4-[(3-{[(3R)-1-(prop-2-enoyl)piperidin-3-yl]amino}-1H-pyrazolo[3,4-b]pyridin-4-yl)oxy]-N-[5-(trifluoromethyl)-1,3-thiazol-2-yl]benzamide], for which the IC50 in experiment [1] was less than 100 nM.

`O=C(c1cccc(Oc2ccnc3[nH]nc(N[C@@H]4CCCNC4)c23)c1)N1CCOCC1` [compound 256, (R)-morpholino(3-(3-(piperidin-3-ylamino)-1H-pyrazolo[3,4-b]pyridin-4-yloxy)phenyl)methanone]: the IC50 in experiment [1] was in the range of 100 to 1000 nM.

As for `O=C(c1cccc(Oc2ccnc3[nH]nc(N[C@@H]4CCCNC4)c23)c1)N1CCCCC1` [compound 255, (R)-piperidin-1-yl(3-(3-(piperidin-3-ylamino)-1H-pyrazolo[3,4-b]pyridin-4-yloxy)phenyl)methanone], the half-inhibitory concentration (IC50) in experiment [1] was 100 to 1000 nM.

For the compound `CC#CC(=O)N1CCC[C@@H](Nc2n[nH]c3nccc(Oc4ccc(-c5nc6ncccc6o5)cc4)c23)C1` [compound 170], the IC50 in experiment [1] was 100 to 1000 nM.

Turning to `CN(C/C=C/C(=O)N1CCC[C@@H](Nc2n[nH]c3nccc(Oc4ccc(NC(=O)Nc5cc(C(F)(F)F)ccn5)cc4)c23)C1)C1CC1` [compound 214, 3-{4-[(3-{[(3R)-1-[(2E)-4-[cyclopropyl(methyl)amino]but-2-enoyl]piperidin-3-yl]amino}-1H-pyrazolo[3,4-b]pyridin-4-yl)oxy]phenyl}-1-[4-(trifluoromethyl)pyridin-2-yl]urea], the IC50 in experiment [1] fell in the range of 100 to 1000 nM.

On to `c1ccc(Oc2ccc(Oc3ccnc4[nH]nc(NC[C@@H]5CCCNC5)c34)cc2)cc1` [compound 263, (R)-4-(4-phenoxyphenoxy)-N-(piperidin-3-ylmethyl)-1H-pyrazolo[3,4-b]pyridin-3-amine], for which the IC50 in experiment [1] is 100 to 1000 nM.

In the case of `CC(=O)N1CCN(C(=O)c2cccc(Oc3ccnc4[nH]nc(N[C@@H]5CCCNC5)c34)c2)CC1` [compound 257, (R)-1-(4-(3-(3-(piperidin-3-ylamino)-1H-pyrazolo[3,4-b]pyridin-4-yloxy)benzoyl)piperazin-1-yl)ethanone], the IC50 in experiment [1] was in the range of 100 to 1000 nM.

In the case of `O=C(NC1CCCCC1)c1cccc(Oc2ccnc3[nH]nc(N[C@@H]4CCCNC4)c23)c1` [compound 254, (R)—N-cyclohexyl-3-(3-(piperidin-3-ylamino)-1H-pyrazolo[3,4-b]pyridin-4-yloxy)benzamide], in experiment [1], the IC50 was 100 to 1000 nM.

As for `Cc1cnc(NC(=O)[C@H]2CC[C@H](Oc3ccnc4[nH]nc(N[C@@H]5CCCN(C(=O)/C=C/CN(C)C6CC6)C5)c34)CC2)s1` [compound 152], the IC50 in experiment [1] was more than 10000 nM.

In the case of `CN(C/C=C/C(=O)N1CC[C@@H](N2C(=O)CN(c3ccc(Oc4ccccc4)cc3)c3ccnc4[nH]nc2c34)C1)C1CC1` [compound 238], in experiment [1], the half-maximal inhibitory concentration (IC50) is 100 to 1000 nM.
